{"source": "patent US20220264876A1", "about": "“COMPOSITIONS AND METHODS FOR ENHANCING PLANT GROWTH” (BOYCE THOMPSON INSTITUTE FOR PLANT RESEARCH, INC., priority 2019, published 2022)", "type_in_all_cases": "in vivo", "key": {"rice seeds": {"test_system": "rice seeds", "experiment": "Rice seed pretreatment with ascr #18: germination/emergence and growth in soil", "experimental": "FIGS. 1A-1D show the effect of ascr #18 on rice seed germination/emergence and growth. Rice seeds were pretreated 24 hours without (mock) or with different concentrations (10, 100 and 1000 nM) of ascr #18 before planting in soil. Seed germination/emergence from soil was measured after 7, 8, 9, 10 and 11 days after planting (FIG. 1A). The length of the plants was measured 15 days after planting (FIG. 1B) and 18 days after planting (FIG. 1C). Pictures were taken 15 days after planting (FIG. 1D). Data are averages±s.d. (n≥12). ***P≤0.0005; ****P≤0.00005; two-tailed t-test.\nFIGS. 2A-2C show the effect of ascr #18 on rice seed germination/emergence and growth. Rice seeds were pretreated 24 hours without (mock) or with different concentrations (10, 100 and 1000 nM) of ascr #18 before planting in soil. Seed germination/emergence from soil was measured after 6, 7, 8, 9 and 10 days after planting (FIG. 2A). The length of the plants was measured 10, 12, 14, 15 and 18 days after planting (FIG. 2B). The fresh biomass of the plants was measured 18 days after planting (FIG. 2C). Data are averages±s.d. (n≥14). *P≤0.05; **P≤0.005; ***P≤0.0005; ****P≤0.00005; two-tailed t-test.\nThe effect of ascr #18 on rice seed germination/emergence and growth was tested. Briefly, rice seeds were pretreated 24 hours without (mock) or with different concentrations (10, 100 and 1000 nM) of ascr #18 before planting in soil. Seed germination/emergence from soil was measured after 7, 8, 9, 10 and 11 days after planting. […] The length of plants was also measured 15 days and 18 days after planting and pictures were taken at 15 days after planting.\nFurther studies of the effect of ascr #18 on rice seed germination/emergence and growth were performed. Rice seeds were pretreated 24 hours without (mock) or with different concentrations (10, 100 and 1000 nM) of ascr #18 before planting in soil. Seed germination/emergence from soil was measured after 6, 7, 8, 9 and 10 days after planting. […] The length of plants was also measured at 10, 12, 14, 15 and 18 days after planting. […] The fresh biomass of plants was also measured 18 days after planting."}, "tomato seeds": {"test_system": "tomato seeds", "experiment": "Tomato seed pretreatment with ascr #18: germination/emergence and growth in soil", "experimental": "Tomato seeds were pretreated 24 hours without (mock) or with different concentrations (1, 10, 100, 1000 and 10000 nM) of ascr #18 before planting on soil. The length of the plants was measured 12 days after planting. **P≤0.002; ****P≤0.00005; two-tailed t-test. FIGS. 4A-4F show the effect of ascr #18 on tomato seed germination/emergence and growth. Tomato seeds were pretreated 24 hours without (mock) or with different concentrations (10, 100, and 1000 nM) of ascr #18 before planting in soil. Seed germination/emergence from soil was measured after 4, 5, 6 and 7 days after planting (FIG. 4A). The length of plants was measured 12 and 14 days after planting (FIG. 4B). Pictures were taken 14 days after planting (FIG. 4C). **P≤0.002; ****P≤0.00005; two-tailed t-test. FIGS. 4D and 4E provide graphs of the fresh weight of above-ground (excluding root) part of the plants measured at day 21 after planting in soil for tomato seeds pretreated without (mock) or with different concentrations (0.1 and 10 μM) of ascr #18 for 24 hours (FIG. 4D) or 72 hours (FIG. 4E) before planting in soil. The length of the roots of the plants was also measured 21 days after planting (FIG. 4F). The effect of ascr #18 on was also determined on tomato plant growth. Tomato seeds were pretreated 24 hours without (mock) or with different concentrations (1, 10, 100, 1000 and 10000 nM) of ascr #18 before planting on soil. The length of the plants was measured 12 days after planting. […] Further studies on the effect of ascr #18 on tomato seed germination/emergence and growth. Tomato seeds were pretreated 24 hours without (mock) or with different concentrations (10, 100, and 1000 nM) of ascr #18 before planting in soil. Seed germination/emergence from soil was measured after 4, 5, 6 and 7 days after planting. […] The length of the plants was also measured 12 and 14 days after planting and pictures were taken 14 days after planting. […] In further experiments, tomato seeds were pretreated 24 or 72 hours without (mock) or with different concentrations (0.1 and 10 μM) of ascr #18 before planting in soil. More specifically, the tomato seeds were submerged in aqueous solutions of ascaroside for 24 hours or 72 hours directly before planting. Alternatively, seeds, (e.g., tomato seeds) can be coated with a solution of different concentrations of ascaroside containing polymeric binders commonly used for seed coating. Following treatment, the seeds can be dried and stored (e.g., for 2 weeks) before planting. The fresh weight of above-ground (excluding root) part of the plants was measured 21 days after planting. […] The length of the roots of the plants was also measured 21 days after planting."}, "Arabidopsis seeds": {"test_system": "Arabidopsis seeds", "experiment": "Arabidopsis seed pretreatment with ascr #18: germination, growth and flowering", "experimental": "Arabidopsis seeds were pretreated 24 hours without (mock) or with 1 μM ascr #18 before planting in soil. FIG. 5A provides a graph of the number of plants at different stages of germination counted 3 days after planting. Stages of germination; 0=no germination; 1=about to germinate; 2=germinated and two-leaf stage; 3=germinated and have expanded leaves (n=60). FIG. 5B provides graphs of the surface area of germinated plants measured by taking pictures and counting pixels using Fiji software and then normalizing by the total area for each plant (n=15 pots with each pot containing 4 plants). FIG. 5C provides a graph of the percent of plants flowering at day 25 after planting in soil. FIG. 5D provides a graph of the fresh weight of above-ground (excluding root) part of the plants measured at day 25 after planting in soil. *P=0.03; **P≤0.01; ***P≤0.001; ****P≤0.0001; two-tailed t-test. The effects of ascr #18 on Arabidopsis were also studied. Arabidopsis seeds were pretreated 24 hours without (mock) or with 1 μM ascr #18 for ascr #18 before planting in soil. The number of plants at different stages of germination were counted 3 days after planting. […] Additionally, the surface area of germinated plants was measured by taking pictures and counting pixels using Fiji software. The data was then normalized by the total area for each plant. […] The percentage of plants flowering at day 25 after planting in soil was also determined. […] The fresh weight of above-ground (excluding root) part of the plants was also measured 25 days after planting."}, "wheat seeds": {"test_system": "wheat seeds", "experiment": "Wheat seed pretreatment with ascr #18: germination/emergence and growth in soil", "settings": "wheat seeds pretreated 24 hours with 10, 100, 1000 nM vs mock; 10 days after planting (FIG. 9B)", "experimental": "FIGS. 9A-9B show the effect of ascr #18 on wheat seed germination/emergence and growth. Wheat seeds were pretreated 24 hours without (mock) or with different concentrations (10, 100 and 1000 nM) of ascr #18 before planting in soil. Seed germination/emergence from soil was measured after 2, 3, 4, 5, 6, 7, 8, 9 and 10 days after planting (FIG. 9A). The height of the second node of the plants was measured […] after planting (FIG. 9B). Data are averages±s.d. (n≥12). *P≤0.05; two-tailed t-test. The effect of ascr #18 on wheat seed germination/emergence and growth was also studied. Wheat seeds were pretreated 24 hours without (mock) or with different concentrations (10, 100 and 1000 nM) of ascr #18 before planting in soil. Seed germination/emergence from soil was measured after 2, 3, 4, 5, 6, 7, 8, 9 and 10 days after planting (FIG. 9A). The height of the second node of the plants was also measured 10 days after planting."}, "corn seeds": {"test_system": "corn seeds", "experiment": "Corn seed pretreatment with ascr #18: germination/emergence and growth in soil", "experimental": "FIGS. 8A-8B show the effect of ascr #18 on corn seed germination/emergence and growth. Corn seeds were pretreated 24 hours without (mock) or with different concentrations (10, 100 and 1000 nM) of ascr #18 before planting in soil. Seed germination/emergence from soil was measured after 4, 5, 6, 7, 8, 9, 10 and 11 days after planting (FIG. 8A). The height of the second node of the plants was measured 15 days after planting (FIG. 8B). Data are averages±s.d. (n≥12). *P≤0.05; two-tailed t-test. The effect of ascr #18 on corn seed germination/emergence and growth was also studied. Corn seeds were pretreated 24 hours without (mock) or with different concentrations (10, 100 and 1000 nM) of ascr #18 before planting in soil. Seed germination/emergence from soil was measured after 4, 5, 6, 7, 8, 9, 10 and 11 days after planting. […] The height of the second node of the plants was also measured 15 days after planting."}, "potato plants": {"test_system": "potato plants", "experiment": "Spray treatment of four-week old potato plants with ascr #18: growth and tuber yield", "experimental": "FIGS. 6A-6B show the effects of ascr #18 on potato plants. Four-week old potato plants were pretreated without (mock) or with ascr #18 (10 nM). Potato tubers were harvested from mock and pre-treated plants. FIG. 6A provides images of tubers from one representative plant that was mock treated and one representative plant that was treated with ascr #18. FIG. 6B provides a graph of the biomass of the above-ground (excluding root) part of the potato plants. FIGS. 7A-7E show the effect of ascr #18 on potato plant growth and yield. Four-week old potato plants were sprayed once with buffer only (mock) or 10 nM ascr #18 before harvesting two weeks later. […] Potato root system (7C) and tubers (7D) harvest from treated and mock plants are presented. Each pile of tubers was from one plant. FIG. 7E presents the tuber biomass of the mock and treated plants at harvest. The effects of ascr #18 on potato were also studied. Four week old potato plants were pretreated (sprat treatment) without (mock) or with ascr #18 (10 nM). Potato tubers were harvested from mock and pre-treated plants. Each pile of tubers in FIG. 6A were from one plant. […] The above-ground (excluding root) part of the potato plants was also measured."}}, "data": [{"smiles": "CC1O[C@@H](O[C@@H](C)CCCCCCCCC(=O)O)C(O)C[C@H]1O", "note": "(stereo in doubt) [ascr #18, (10R)-(3′R,5′R-dihydroxy-6′S-methyl-(2H)-tetrahydropyran-2-yloxy)-undecanoic Acid]", "values": [{"measurement": "Seed germination/emergence from soil", "setting": "rice seeds; rice seeds pretreated 24 hours with 10, 100, 1000 nM vs mock, 7-11 days after planting (FIG. 1A)", "value": "faster germination/emergence rate"}, {"measurement": "Seed germination/emergence from soil", "setting": "rice seeds; rice, further study, 10, 100, 1000 nM for 24 hours vs mock, 6-10 days after planting (FIG. 2A)", "value": "faster germination/emergence rate"}, {"measurement": "Length of plants", "setting": "rice seeds; rice, further study, 10, 100, 1000 nM, 10, 12, 14, 15 and 18 days after planting (FIG. 2B)", "value": "faster growth"}, {"measurement": "Fresh biomass of plants", "setting": "rice seeds; rice, further study, 10, 100, 1000 nM, 18 days after planting (FIG. 2C)", "value": "greater biomass"}, {"measurement": "Length of plants", "setting": "rice seeds; rice, seed treatment 100 nM or 1000 nM vs untreated or 10 nM, 15 and 18 days after planting (FIGS. 1B-1D)", "value": "taller"}, {"measurement": "Fresh weight of above-ground (excluding root) part of the plants", "setting": "tomato seeds; tomato seeds pretreated 24 or 72 hours with 0.1 and 10 μM vs mock, 21 days after planting (FIGS. 4D-4E), particularly with longer pretreatment", "value": "greater weight"}, {"measurement": "Seed germination/emergence from soil", "setting": "tomato seeds; tomato seeds pretreated 24 hours with 10, 100, 1000 nM vs mock, 4-7 days after planting (FIG. 4A)", "value": "faster germination/emergence rate"}, {"measurement": "Length of the roots of the plants", "setting": "tomato seeds; tomato, 0.1 and 10 μM vs mock, 21 days after planting (FIG. 4F)", "value": "longer roots"}, {"measurement": "Length of the plants", "setting": "tomato seeds; tomato, 10, 100, 1000 nM for 24 hours, 12 and 14 days after planting (FIGS. 4B-4C)", "value": "taller"}, {"measurement": "Length of the plants", "setting": "tomato seeds; tomato, seed treatment 100 nM or 1000 nM vs untreated or 10 nM, 12 days after planting (FIG. 3)", "value": "taller"}, {"measurement": "Number of plants at different stages of germination", "setting": "Arabidopsis seeds; Arabidopsis seeds pretreated 24 hours with 1 μM vs mock, 3 days after planting (FIG. 5A)", "value": "faster germination/emergence rate"}, {"measurement": "Fresh weight of above-ground (excluding root) part of the plants", "setting": "Arabidopsis seeds; Arabidopsis, 1 μM vs mock, 25 days after planting (FIG. 5D)", "value": "greater weight"}, {"measurement": "Percentage of plants flowering", "setting": "Arabidopsis seeds; Arabidopsis, 1 μM vs mock, day 25 after planting in soil (FIG. 5C)", "value": "greater plant flowering"}, {"measurement": "Surface area of germinated plants", "setting": "Arabidopsis seeds; Arabidopsis, 1 μM vs mock, pixel counting with Fiji software, normalized (FIG. 5B)", "value": "greater plant surface area"}, {"measurement": "Height of the second node of the plants", "setting": "wheat seeds", "value": "taller"}, {"measurement": "Seed germination/emergence from soil", "setting": "corn seeds; corn seeds pretreated 24 hours with 10, 100, 1000 nM vs mock, 4-11 days after planting (FIG. 8A)", "value": "faster germination/emergence rate"}, {"measurement": "Height of the second node of the plants", "setting": "corn seeds; corn, 10, 100, 1000 nM vs mock, 15 days after planting (FIG. 8B)", "value": "taller"}, {"measurement": "Biomass of the potato plants (above-ground part, tubers)", "setting": "potato plants; four-week old potato plants sprayed once with 10 nM vs mock, harvest two weeks later (FIG. 6B, FIGS. 7A-7E)", "value": "greater biomass"}, {"measurement": "Potato tubers harvested", "setting": "potato plants; four-week old potato plants sprayed with 10 nM vs mock (FIG. 6A)", "value": "significantly more potato tubers"}]}]}
